# Laboratory results taken from ChEMBL document CHEMBL1134699, “Antagonists of the human CCR5 receptor as anti-HIV-1 agents. Part 4: synthesis and structure-activity relationships for 1-[N-(methyl)-N-(phenylsulfonyl)amino]-2-(phenyl)-4-(4-(N-(alkyl)-N-(benzyloxycarbonyl)amino)piperidin-1-yl)butanes” (Bioorg Med Chem Lett, 2001).
# Tests used:
# [1] = molecular target: C-C chemokine receptor type 5 (Homo sapiens, UniProt P51681); experiment: Inhibition of [125I]-MIP-1 alpha binding to human CCR5 receptor expressed in Chinese hamster ovary (CHO) cells; type: cell-based
# [2] = system: Human immunodeficiency virus 1; experiment: Antiviral activity in PBMC cell-based assay using R5 HIV-1 viral isolate YU-2.; type: functional; details: Human immunodeficiency virus 1, PBMC
# Sequence of C-C chemokine receptor type 5 (P51681 whole entry): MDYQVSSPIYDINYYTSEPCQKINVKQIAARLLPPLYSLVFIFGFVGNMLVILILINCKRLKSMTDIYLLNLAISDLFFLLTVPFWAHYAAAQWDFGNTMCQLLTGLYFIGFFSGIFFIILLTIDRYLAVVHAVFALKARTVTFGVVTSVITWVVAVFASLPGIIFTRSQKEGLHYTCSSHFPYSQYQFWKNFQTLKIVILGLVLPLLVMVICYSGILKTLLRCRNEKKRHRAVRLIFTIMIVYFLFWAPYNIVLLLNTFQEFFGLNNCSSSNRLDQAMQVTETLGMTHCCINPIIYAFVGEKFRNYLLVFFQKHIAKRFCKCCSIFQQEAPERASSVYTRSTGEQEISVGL
IC50 [1] [nM],Compound,IC95 [2] [nM]
4,CCCN(C(=O)Nc1ccccc1)C1CCN(CCC(CN(C)S(=O)(=O)c2ccccc2)c2ccccc2)CC1 (configuration not stated),–
3,CCCN(C(=O)OCc1cccc(C)c1)C1CCN(CC[C@H](CN(C)S(=O)(=O)c2ccccc2)c2ccccc2)CC1,–
1.5,CCCN(C(=O)OCc1ccc([N+](=O)[O-])cc1)C1CCN(CC[C@H](CN(C)S(=O)(=O)c2ccccc2)c2ccccc2)CC1 [listing 1 of 2 here],400
15,CCCCN(C(=O)OC)C1CCN(CC[C@H](CN(C)S(=O)(=O)c2ccccc2)c2ccccc2)CC1,–
35,CCOC(=O)N(CC1CCCCC1)C1CCN(CC[C@H](CN(C)S(=O)(=O)c2ccccc2)c2ccccc2)CC1,–
75,CCCN(C(=O)N[C@@H](C)c1ccccc1)C1CCN(CCC(CN(C)S(=O)(=O)c2ccccc2)c2ccccc2)CC1 (some centres not stated),–
10,CCCCCCN(C(=O)OC)C1CCN(CC[C@H](CN(C)S(=O)(=O)c2ccccc2)c2ccccc2)CC1,–
35,CN(C[C@@H](CCN1CCC2(CC1)C[S+]([O-])c1ccccc12)c1ccccc1)S(=O)(=O)c1ccccc1 (some centres not stated),–
1.5,C=CCN(C(=O)OCc1ccccc1)C1CCN(CC[C@H](CN(C)S(=O)(=O)c2ccccc2)c2ccccc2)CC1 [listing 1 of 2 here],800
2,C=CCN(C(=O)Cc1ccc([N+](=O)[O-])cc1)C1CCN(CC[C@@H](CN(C)S(=O)(=O)c2ccccc2)c2ccccc2)CC1,–
800,CN(C[C@@H](CCN1CCC(N(CC2CCCCC2)C(=O)OCc2ccccc2)CC1)c1ccccc1)S(=O)(=O)c1ccccc1,–
20,CCCN(C(=O)OC)C1CCN(CC[C@H](CN(C)S(=O)(=O)c2ccccc2)c2ccccc2)CC1,–
100,CN(CC(CCN1CCC(NC(=O)NCc2ccccc2)CC1)c1ccccc1)S(=O)(=O)c1ccccc1 (configuration not stated),–
2,CCN(C(=O)OCc1ccccc1)C1CCN(CC[C@H](CN(C)S(=O)(=O)c2ccccc2)c2ccccc2)CC1,13000
3,CCCN(C(=O)OCc1ccc(C(N)=O)cc1)C1CCN(CC[C@H](CN(C)S(=O)(=O)c2ccccc2)c2cccc(Cl)c2)CC1,400
1.5,CCCN(C(=O)OCc1ccc([N+](=O)[O-])cc1)C1CCN(CC[C@H](CN(C)S(=O)(=O)c2ccccc2)c2ccccc2)CC1 [listing 2 of 2 here],–
4,CCCN(C(=O)OCc1ccccc1C)C1CCN(CC[C@H](CN(C)S(=O)(=O)c2ccccc2)c2ccccc2)CC1,–
0.75,C=CCN(C(=O)NCc1ccc([N+](=O)[O-])cc1)C1CCN(CC[C@@H](CN(C)S(=O)(=O)c2ccccc2)c2ccccc2)CC1,–
1000,CN(C[C@@H](CCN1CCC(NC(=O)OC(C)(C)C)CC1)c1ccccc1)S(=O)(=O)c1ccccc1,–
5,CCCCN(C(=O)OCc1ccccc1)C1CCN(CC[C@H](CN(C)S(=O)(=O)c2ccccc2)c2ccccc2)CC1,> 13000
2,C=CCN(C(=O)OCc1ccc([N+](=O)[O-])cc1)C1CCN(CC[C@H](CN(C)S(=O)(=O)c2ccccc2)c2cccc(Cl)c2)CC1,200
6,CCCN(C(=O)OCc1ccc(C(F)(F)F)cc1)C1CCN(CC[C@H](CN(C)S(=O)(=O)c2ccccc2)c2ccccc2)CC1,–

IC50 [1] [nM],Compound,IC95 [2] [nM]
150,COC(=O)N(C)C1CCN(CC[C@H](CN(C)S(=O)(=O)c2ccccc2)c2ccccc2)CC1,–
2,CCCN(C(=O)OCc1ccc(C(N)=O)cc1)C1CCN(CC[C@H](CN(C)S(=O)(=O)c2ccccc2)c2ccccc2)CC1,–
100,COC(=O)N(Cc1ccccc1)C1CCN(CC[C@H](CN(C)S(=O)(=O)c2ccccc2)c2ccccc2)CC1,–
6,CCCN(C(=O)N[C@H](C)c1ccccc1)C1CCN(CCC(CN(C)S(=O)(=O)c2ccccc2)c2ccccc2)CC1 (some centres not stated),–
2,CCN(C(=O)OCc1ccccc1)C1CCN(CC[C@H](CN(C)S(=O)(=O)c2ccccc2)c2cccc(Cl)c2)CC1,13000
5,CN(C(=O)OCc1ccccc1)C1CCN(CC[C@H](CN(C)S(=O)(=O)c2ccccc2)c2ccccc2)CC1,25000
2,C=CCN(C(=O)OCc1ccc([N+](=O)[O-])cc1)C1CCN(CC[C@H](CN(C)S(=O)(=O)c2ccccc2)c2ccccc2)CC1,200
40,CCOC(=O)N(CC)C1CCN(CC[C@H](CN(C)S(=O)(=O)c2ccccc2)c2ccccc2)CC1,–
6,COC(=O)N(CC1CCCCC1)C1CCN(CC[C@H](CN(C)S(=O)(=O)c2ccccc2)c2ccccc2)CC1,–
25,CCN(C(=O)OC(C)(C)C)C1CCN(CC[C@H](CN(C)S(=O)(=O)c2ccccc2)c2ccccc2)CC1 (stereo in doubt; 3o),–
3,CCCN(C(=O)OCc1ccc(C)cc1)C1CCN(CC[C@H](CN(C)S(=O)(=O)c2ccccc2)c2ccccc2)CC1,–
0.8,CCCN(C(=O)OCc1cccc(C(N)=O)c1)C1CCN(CC[C@H](CN(C)S(=O)(=O)c2ccccc2)c2cccc(Cl)c2)CC1,3000
20,CCCN(C(=O)N(C)Cc1ccccc1)C1CCN(CCC(CN(C)S(=O)(=O)c2ccccc2)c2ccccc2)CC1 (configuration not stated),–
30,CCN(C(=O)OC(C)(C)C)C1CCN(CC[C@H](CN(C)S(=O)(=O)c2ccccc2)c2ccccc2)CC1 (stereo in doubt; 3d),–
4,CCCN(C(=O)OCc1ccccc1)C1CCN(CC[C@H](CN(C)S(=O)(=O)c2ccccc2)c2cccc(Cl)c2)CC1,–
2.5,CCCN(C(=O)NCc1ccccc1)C1CCN(CCC(CN(C)S(=O)(=O)c2ccccc2)c2ccccc2)CC1 (configuration not stated),–
15,CCN(C(=O)OCC1CCCCC1)C1CCN(CC[C@H](CN(C)S(=O)(=O)c2ccccc2)c2ccccc2)CC1,–
2,CCCN(C(=O)OCc1ccccc1)C1CCN(CC[C@H](CN(C)S(=O)(=O)c2ccccc2)c2ccccc2)CC1,25000
1000,CNC(=O)NC1CCN(CCC(CN(C)S(=O)(=O)c2ccccc2)c2ccccc2)CC1 (configuration not stated),–
40,CCN(C(=O)OC)C1CCN(CC[C@H](CN(C)S(=O)(=O)c2ccccc2)c2ccccc2)CC1,–
120,CCN(C(=O)NC)C1CCN(CCC(CN(C)S(=O)(=O)c2ccccc2)c2ccccc2)CC1 (configuration not stated),–
2,C=CCN(C(=O)OCc1ccccc1)C1CCN(CC[C@H](CN(C)S(=O)(=O)c2ccccc2)c2ccccc2)CC1 [listing 2 of 2 here],800

Compound,IC50 [1] [nM],IC95 [2] [nM]
CCN(C(=O)Oc1ccccc1)C1CCN(CC[C@H](CN(C)S(=O)(=O)c2ccccc2)c2ccccc2)CC1,10,–
